According to patent publication US9326513B2, “Fungicidal compositions” (Syngenta Participations AG, priority 2011, dated 2016):

Experiments:
[1] = system: Blumeria graminis f. sp. tritici (Erysiphe graminis f. sp. tritici); experiment: Blumeria graminis f. sp. tritici / wheat / leaf disc preventative (powdery mildew on wheat); assay type: in vivo; conditions: foliar, compared to untreated control leaf disks, read-out: disease control
How it was run: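 Preventative leaf-disc test: compound (200 ppm) was sprayed onto cv. Kanzler wheat segments, which were dusted with conidia from infected plants 1 day after application. After incubation at 20° C and 60% rh, disease control relative to untreated segments was rated 6-8 days after application.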

[2] = system: Puccinia recondita f. sp. tritici; experiment: Puccinia recondita f. sp. tritici / wheat / leaf disc preventative (brown rust); assay type: in vivo; conditions: foliar, compared to untreated control leaf disks, read-out: disease control
From the text: Puccinia recondita f. sp. tritici/Wheat/Leaf Disc Preventative (Brown Rust) Wheat leaf segments cv. Kanzler were placed on agar in multiwell plates (24-well format) and sprayed with the formulated test compound diluted in water. The leaf disks were inoculated with a spore suspension of the fungus 1 day after application.

[3] = system: Puccinia recondita f. sp. tritici; experiment: Puccinia recondita f. sp. tritici / wheat / leaf disc curative (brown rust); assay type: in vivo; conditions: foliar, compared to untreated control leaf disks, read-out: disease control
Protocol: Puccinia recondita f. sp. tritici/Wheat/Leaf Disc Curative (Brown Rust) Wheat leaf segments cv. Kanzler are placed on agar in multiwell plates (24-well format). The leaf segments are inoculated with a spore suspension of the fungus. Plates were stored in darkness at 19° C. and 75% rh. The formulated test compound diluted in water was applied 1 day after inoculation.

[4] = system: Pyrenophora teres; experiment: Pyrenophora teres / barley / leaf disc preventative (net blotch); assay type: in vivo; conditions: foliar, compared to untreated control leaf disks, read-out: disease control
From the text: Pyrenophora teres/Barley/Leaf Disc Preventative (Net Blotch) Barley leaf segments cv. Hasso were placed on agar in a multiwell plate (24-well format) and sprayed with the formulated test compound diluted in water. The leaf segments were inoculated with a spore suspension of the fungus 2 days after application.

[5] = system: Septoria tritici; experiment: Septoria tritici (leaf blotch), YBG microtiter plate, photometric growth inhibition after 6 days; assay type: cell-based; conditions: Zymoseptoria tritici, 144 h, solo
From the text: In the following Tables ‘Activity (%)’ means the assessed experimental activity (% disease control in this test when compared to untreated control leaf disks under the same conditions, which show extensive disease development) and “P” is the expected value calculated (expected) activity according to the COLBY formula (see above). The column headed ‘S?’ indicates whether or not synergy was observed, with ‘y’ meaning that synergy was observed.
Septoria tritici (Leaf Blotch):
After placing solutions of the test compounds (containing 0.2% DMSO) into a microtiter plate (96-well format), an equal amount of the nutrient broth (YBG) was added to each of the well. Finally the fungal spore solution was added. The test plates were incubated at 20° C. The inhibition of growth was determined photometrically after 6 days and the activity calculated in relation to untreated control.

| Structure (SMILES) | pest or weed control at 200 ppm [1] [%] | pest or weed control at 200 ppm [2] [%] | pest or weed control at 200 ppm [3] [%] | pest or weed control at 200 ppm [4] [%] | melting point [°C] | inhibition of growth at 1.25 ppm ([5]; rate 1.25 ppm) [%] | inhibition of growth at 2.5 ppm ([5]; rate 2.5 ppm) [%] | inhibition of growth at 5 ppm ([5]; rate 5 ppm) [%] |
| --- | --- | --- | --- | --- | --- | --- | --- | --- |
| CCN(C)/C=N/c1cc(Br)c(OCc2cccc(C(F)(F)F)c2)nc1C [Q.153] | ≥ 50 | ≥ 50 | ≥ 50 | ≥ 50 | 43 to 44 | – | – | – |
| CCN(C)/C=N/c1cc(Br)c(OCc2cc(C)ccc2C)nc1C [Q.154] | ≥ 50 | ≥ 50 | ≥ 50 | ≥ 50 | 53 to 57 | – | – | – |
| C#Cc1cccc(COc2nc(C)c(/N=C/N(C)CC)cc2Br)c1 [Q.195] | ≥ 50 | ≥ 50 | ≥ 50 | ≥ 50 | 52 to 54 | – | – | – |
| CCN(C)/C=N/c1cc(Br)c(OCc2cc(C)cc(C)c2)nc1C [Q.207] | ≥ 50 | ≥ 50 | ≥ 50 | ≥ 50 | 57 to 58 | – | – | – |
| CCN(C)/C=N/c1cc(Br)c(OCc2cc(C)ns2)nc1C [Q.235] | ≥ 50 | ≥ 50 | ≥ 50 | ≥ 50 | 55 to 57 | – | – | – |
| CCN(C)/C=N/c1cc(Br)c(OCc2cccc(NC(=O)OC(C)(C)C)c2)nc1C [Q.236] | – | ≥ 50 | ≥ 50 | ≥ 50 | 40 to 42 | – | – | – |
| CCN(C)/C=N/c1cc(Br)c(OC(C)c2ccccc2-c2ccccc2)nc1C (stereo not drawn) [Q.295] | – | ≥ 50 | – | – | 59 to 62 | – | – | – |
| CCN(C)/C=N/c1cc(Br)c(OCc2ccccc2F)nc1C [Q.298] | ≥ 50 | ≥ 50 | ≥ 50 | ≥ 50 | 57 to 61 | – | – | – |
| CCN(C)/C=N/c1cc(Br)c(OCc2ccccc2Cl)nc1C [Q.300] | ≥ 50 | ≥ 50 | ≥ 50 | – | 53 to 56 | – | – | – |
| CCN(C)/C=N/c1cc(Br)c(OCc2c(C)cccc2C)nc1C [Q.325] | ≥ 50 | ≥ 50 | ≥ 50 | – | 56 to 57 | – | – | – |
| CCN(C)/C=N/c1cc(Br)c(OCCc2cc(C)cc(C)c2)nc1C [Q.422] | – | – | – | – | 61 to 63 | – | – | – |
| CC(C)(C)C(O)(CCc1ccc(Cl)cc1)Cn1cncn1 (stereo not drawn) [Tebuconazole] | – | – | – | – | – | 0 | 47 | 73 |
